Experimental data taken from the pKa sets of Baltruschat and Czodrowski (2020).

Conditions: acidic group

SMILES	pKa
Cc1nccc2c1[nH]c1ccccc12	14.5
COc1c(Cl)cc(Cl)c(O)c1C(=O)NC1CC[NH+](C)CC1	6.02
Sc1nc2[nH]cnc2c[nH+]1	0.5
c1ccc(-c2nnn[nH]2)cc1	4.03
CCN(CC)C(=S)NC(=O)c1cccc(F)c1	8.21
NC(=S)c1ccc(Br)cc1	12.5
N#Cc1ccc2c(c1)C([P+](c1ccccc1)(c1ccccc1)c1ccccc1)c1ccccc1-2 (stereo unspecified)	5.81
C[NH+](C)Cc1cccc(O)c1	8.88
NC(=O)CNCCCNCC(N)=O	7.27
CC1=C(O)C(O)=CC1	9.11
CC/C=C/CC(=O)O	4.52
CCCCO	15.6
N#CCC#N	11.2
NC(=O)C(CCCCC(=O)O)c1ccccc1 (stereo unspecified)	4.79
[O-]c1ccc(-c2ccc(O)cc2)cc1	14.1
NC(=O)c1ccccc1C(=O)O	3.75
C=CCCC(=O)O	4.68
N#CCCC(C(=O)O)c1ccccc1 (stereo unspecified)	3.92
N#Cc1cccc(NS(=O)(=O)c2ccccc2)c1	7.15
NC1=[NH+][C@H]2C[C@@H](N1)[NH2+][C@@H]2C(=O)O	1.3
CC(=O)[n+]1ccc(N)cc1	9.15
OC(O)c1ccncc1	12.2

SMILES	pKa
O=C1O[C@@H]([C@@H](O)CO)C([O-])=C1O	11.3
CC[NH2+]CC(=O)O	2.31
CNC[C@H](O)c1cccc(O)c1	9.84
CC(C)[C@H]1C[NH2+][C@H](C(=O)O)[C@H]1CC(=O)O	2.12
CCO[C@H]1C[C@@H]1C(=O)O	4.46
COCc1ccc(C(=O)O)cc1	4.18
CCC1C(=O)C(CC)C1=O (stereo unspecified)	3.5
CC(=O)CC(=S)Nc1ccc(C)cc1	7.65
Brc1ccc(-c2nnn[nH]2)cc1	3.73
CC(C)(S)C(C(=O)[O-])n1ccnc1Cc1ccccc1 (stereo unspecified)	10.5
Cc1ccc(S(=O)(=O)NC(=O)OCc2ccccc2)cc1	4.21
O=C(CCl)Nc1nnc(-c2ccccc2)s1	6.9
CCOC(=O)C[N+](=O)[O-]	5.82
NC(=O)CS(N)(=O)=O	9.7
O=c1cc(S(=O)(=O)[O-])[nH]c(=O)[nH]1	7.26
CC(C)(/C=C/C(=O)[O-])c1cc([N+](=O)[O-])ccc1O	7.24
O=C(O)c1cccc2ccc(O)cc12	3.69
Nc1ccc(-c2nnn[nH]2)cc1	4.55
C[n+]1c2ccccc2nc2ccc(O)cc21	3
[NH3+]C(c1cccc(O)c1O)P(=O)([O-])O (stereo unspecified)	5.06
Cc1cc(C)c([N+](=O)[O-])c(C)c1O	8.98
Oc1ccc(/N=N/c2nccs2)c(O)c1	1.56

SMILES	pKa
S=C(Nc1ccc(Cl)cc1)c1ccc(Cl)cc1	10.2
ONc1cc[n+](O)c2ccccc12	3.89
c1ccc(-c2nc3ccccc3[nH]2)cc1	11.9
CCCCC1(CC)C(=O)NC(=S)NC1=O	7.37
O=[N+]([O-])c1ccc[nH]1	10.6
NC1=[NH+][C@@H](CC(=O)O)C(=O)N1CCCC([NH3+])C(=O)O (stereo partly specified)	1.86
CC(=O)[n+]1cccc(Cl)c1	2.98
CC(O)(c1ccccc1)C(C(=O)O)c1ccc(-c2ccccc2)cc1 (stereo unspecified)	3.38
O=C(O)CCCC(=O)NOCc1ccccc1	4.7
Nc1ncc([N+](=O)[O-])cn1	14.7
CC(C)=CC(=O)/C=N/O	8.9
COc1ccc2cc(O)ccc2c1	9.64
O=C(O)Cn1cccc1	3.3
O=C([O-])c1ccc(O)c2ncccc12	9.32
N#C/C(=C\C(=O)O)c1ccccc1	3.07
O=C(O)c1cccc([N+](=O)[O-])c1	3.47
O=C(O)CC#Cc1ccccc1	3.44
CC(=N\O)/C(CO)=N/O	10.1
CCCC/C=[N+](\[O-])O	4.5
C[N+](C)(C)c1cccc(O)c1	8.07
O[n+]1c2ccccc2nc2ccccc21	1.12
C[n+]1c(N)ccnc1[O-]	13.5

SMILES	pKa
CC(C)(S)CN	11
CC(C)(O)C(C(=O)O)c1ccc(C2CCCCC2)cc1 (stereo unspecified)	3.76
O=C([O-])C[N+](=O)[O-]	8.9
O=C(O)c1sccc1[N+](=O)[O-]	2.68
CC1=NN(c2ccccc2)C(=O)/C1=C\c1c(C)nn(-c2ccccc2)c1O	13.8
O=C(O)c1ccc([N+](=O)[O-])c2cccnc12	1.41
O=S(=O)(O)c1ccc(Br)cc1	-6.72
O=C(O)C(c1ccc(C2CCCCC2)cc1)C(O)c1ccccc1 (stereo unspecified)	4.24
CC1(C)CCC(=O)N1O	8.7
CC(=O)CC(=O)C(C)C	9.46
C/C(=N/c1ccccc1O)c1ccccc1O	9.23
O=C(O)/C=C\C(=O)NOCc1ccccc1	3.8
Nc1c2[nH]cnc2nc[n+]1[O-]	9
CC[NH+](CC)Cc1cc(Cl)cc(Cl)c1O	5.95
CC1=NCCc2c1[nH]c1ccc([N+](=O)[O-])cc21	12.6
O=S1(=O)N=CNc2ncccc21	7.03
Oc1ccc(/C=N/c2ncc3nc[nH]c3n2)cc1	8.62
Cc1c(Cl)c([N+](=O)[O-])cc2c1nnn2O	3.1
Oc1cc(-c2ccccc2)n(-c2ccccc2)n1	12.9
C[NH2+]CCCNC(=O)/C=N/O	8.61
